Laboratory results published in ChEMBL document CHEMBL5096235, “In Silico Exploration and Biological Evaluation of Bispecific Peptides Derived from Anti-HER2 Antibodies and Peptide-Camptothecin Conjugates for HER2-Positive Breast Cancer” (J Med Chem, 2022).
Active and inactive are the calls of the source. The rule behind the calls is not given here. Residues, ends and D or L forms follow the SMILES beside them. *: point of attachment. S(CH2)2OCO2(CPT-20-yl) = CC[C@@]1(OC(=O)OCCS*)C(=O)OCc2c1cc1n(c2=O)Cc2cc3ccccc3nc2-1

Key:
[1] = tested on: SK-BR-3; assay: Induction of apoptosis in human SK-BR-3 cells assessed as live cells at 1 uM incubated for 24 hrs by Annexin V-FITC/PI staining based flow cytometry analysis (Rvb= 89.4%); format: functional
[2] = target: Receptor tyrosine-protein kinase erbB-2 (Homo sapiens, UniProt P04626); assay: Binding affinity to HER2 in HER-positive human SK-BR-3 cells assessed as increase in fluorescence intensity at 25 uM by Hoechst 33342 staining based confocal microscopic analysis; format: cell-based
Sequence of Receptor tyrosine-protein kinase erbB-2 (P04626 whole entry): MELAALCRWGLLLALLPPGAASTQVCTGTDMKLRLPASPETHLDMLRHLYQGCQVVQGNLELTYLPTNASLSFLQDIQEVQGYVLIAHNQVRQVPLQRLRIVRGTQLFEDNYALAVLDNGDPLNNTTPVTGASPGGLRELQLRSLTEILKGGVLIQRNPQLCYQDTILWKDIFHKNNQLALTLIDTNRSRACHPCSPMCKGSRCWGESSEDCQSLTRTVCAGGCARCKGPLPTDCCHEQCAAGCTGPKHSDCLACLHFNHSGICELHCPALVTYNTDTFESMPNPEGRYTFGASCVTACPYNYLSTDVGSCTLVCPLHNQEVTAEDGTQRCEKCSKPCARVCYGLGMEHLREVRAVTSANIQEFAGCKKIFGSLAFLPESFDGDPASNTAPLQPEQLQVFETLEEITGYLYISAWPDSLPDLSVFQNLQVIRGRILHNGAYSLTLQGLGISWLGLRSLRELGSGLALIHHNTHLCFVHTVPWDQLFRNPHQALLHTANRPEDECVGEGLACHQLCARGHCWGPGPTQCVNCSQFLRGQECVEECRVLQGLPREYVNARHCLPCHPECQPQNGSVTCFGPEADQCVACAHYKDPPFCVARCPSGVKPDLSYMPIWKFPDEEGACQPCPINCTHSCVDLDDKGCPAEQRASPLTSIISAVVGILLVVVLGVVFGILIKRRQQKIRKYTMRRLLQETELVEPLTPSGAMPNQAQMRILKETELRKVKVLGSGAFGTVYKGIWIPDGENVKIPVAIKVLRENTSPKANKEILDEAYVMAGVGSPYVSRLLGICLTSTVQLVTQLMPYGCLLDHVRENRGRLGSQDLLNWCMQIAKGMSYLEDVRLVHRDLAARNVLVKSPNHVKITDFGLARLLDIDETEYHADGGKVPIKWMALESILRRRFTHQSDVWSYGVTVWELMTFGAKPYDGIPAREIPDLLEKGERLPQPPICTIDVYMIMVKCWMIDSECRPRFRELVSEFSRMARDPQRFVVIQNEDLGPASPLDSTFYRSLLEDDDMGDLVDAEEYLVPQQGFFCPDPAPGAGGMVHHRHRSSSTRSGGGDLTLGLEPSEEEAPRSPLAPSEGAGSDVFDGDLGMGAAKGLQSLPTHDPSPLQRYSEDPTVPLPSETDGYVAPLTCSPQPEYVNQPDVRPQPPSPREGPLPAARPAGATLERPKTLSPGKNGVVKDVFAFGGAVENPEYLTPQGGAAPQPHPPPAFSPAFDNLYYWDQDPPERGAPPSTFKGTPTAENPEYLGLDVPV

[3] = tested on: SK-BR-3; assay: Cytotoxicity against HER-positive human SK-BR-3 cells assessed as inhibition of cell growth incubated for 48 hrs by MTT assay; format: functional, cell-based; details: SK-BR-3, 48 h
[4] = Cytotoxicity against human MCF-10A cells assessed as inhibition of cell growth incubated for 48 hrs by MTT assay; format: toxicity, cell-based
[5] = tested on: SK-BR-3; assay: Induction of apoptosis in human SK-BR-3 cells assessed as late apoptotic cells at 1 uM incubated for 24 hrs by Annexin V-FITC/PI staining based flow cytometry analysis (Rvb= 5.02%); format: functional
[6] = tested on: SK-BR-3; assay: Induction of apoptosis in human SK-BR-3 cells assessed as dead cells at 1 uM incubated for 24 hrs by Annexin V-FITC/PI staining based flow cytometry analysis (Rvb= 1.21%); format: functional
[7] = target: T1, DNA topoisomerase 1 (Homo sapiens) (UniProt P11387); assay: Inhibition of topoisomerase 1 (unknown origin) assessed as relaxation of supercoiled plasmid pBR322 DNA at 10 uM preincubated for 20 mins followed by pBR322 DNA addition and measured after 30 mins by agarose gel electrophoresis analysis; details: time 50.0 min
T1 sequence (whole entry): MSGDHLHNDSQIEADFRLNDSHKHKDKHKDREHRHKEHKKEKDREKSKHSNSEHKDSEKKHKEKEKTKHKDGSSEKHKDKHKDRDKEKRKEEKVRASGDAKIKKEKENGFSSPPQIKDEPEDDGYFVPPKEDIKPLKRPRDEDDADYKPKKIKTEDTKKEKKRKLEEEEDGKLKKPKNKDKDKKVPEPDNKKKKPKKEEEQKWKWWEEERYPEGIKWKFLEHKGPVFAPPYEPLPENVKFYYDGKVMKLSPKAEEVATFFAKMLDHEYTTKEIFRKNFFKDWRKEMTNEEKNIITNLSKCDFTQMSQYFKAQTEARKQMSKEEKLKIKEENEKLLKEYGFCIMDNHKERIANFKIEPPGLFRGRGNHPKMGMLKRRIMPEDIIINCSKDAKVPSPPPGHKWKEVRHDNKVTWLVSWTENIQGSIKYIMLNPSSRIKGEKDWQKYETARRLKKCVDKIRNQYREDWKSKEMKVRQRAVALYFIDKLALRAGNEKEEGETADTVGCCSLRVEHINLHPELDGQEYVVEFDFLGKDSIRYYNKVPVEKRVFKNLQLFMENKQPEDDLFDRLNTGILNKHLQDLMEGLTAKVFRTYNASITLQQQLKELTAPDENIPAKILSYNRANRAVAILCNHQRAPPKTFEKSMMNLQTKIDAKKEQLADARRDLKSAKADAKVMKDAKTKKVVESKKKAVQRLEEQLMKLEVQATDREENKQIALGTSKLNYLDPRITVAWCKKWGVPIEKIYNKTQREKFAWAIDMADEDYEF

[8] = tested on: SK-BR-3; assay: Antitumor activity against human SK-BR-3 cells xenografted in nude mouse assessed as reduction in tumor growth at 8 umol/kg, iv administered every 3 days for 14 days and measured every 2 days; format: functional, organism-based; details: dose 8.0 µmol/kg, time 14.0 day
[9] = Toxicity in nude mouse xenografted with human SK-BR-3 cells assessed as reduction in body weight at 8 umol/kg, iv administered every 3 days for 14 days; format: organism-based; details: in vivo, 336 h, dose 8 µmol/kg, time 14 day
[10] = Renal toxicity in nude mouse xenografted with human SK-BR-3 cells assessed as effect on blood urea nitrogen level at 8 micromol/kg, iv administered every 3 days for 14 days; format: organism-based; details: in vivo, 336 h, dose 8 µmol/kg, time 14 day
[11] = Toxicity in nude mouse xenografted with human SK-BR-3 cells assessed as effect on total protein level at 8 micromol/kg, iv administered every 3 days for 14 days; format: organism-based; details: in vivo, 336 h, dose 8 µmol/kg, time 14 day
[12] = Toxicity in nude mouse xenografted with human SK-BR-3 cells assessed as effect on creatinine level at 8 micromol/kg, iv administered every 3 days for 14 days; format: organism-based; details: in vivo, 336 h, dose 8 µmol/kg, time 14 day
[13] = Toxicity in nude mouse xenografted with human SK-BR-3 cells assessed as spleen damage at 8 micromol/kg, iv administered every 3 days for 14 days by H and E staining based analysis; format: organism-based; details: in vivo, 336 h, dose 8 µmol/kg, time 14 day
[14] = Hemolytic activity in rat erythrocytes at 3.125 to 100 uM by microplate reader analysis relative to control; format: toxicity, cell-based, Erythrocyte; details: dose 3.125-100 µM, read-out: Activity

Row | SMILES | Activity [1] | Activity [2] | IC50 [3] | IC50 at 48 h [4] | Activity [5] | Activity [6] | inhibition [7] | Activity [8] | Activity [9] | Activity [10] | Activity [11] | Activity [12] | Activity [13] | hemolysis at 100 µM [14]
1 | CC[C@H](C)[C@H](NC(=O)[C@@H](N)CCCNC(=N)N)C(=O)N[C@@H](CCCCN)C(=O)N1CCC[C@H]1C(=O)N[C@@H](CCCNC(=N)N)C(=O)N[C@@H](CCCCN)C(=O)NCC(=O)N[C@@H](Cc1ccc(O)cc1)C(=O)N[C@H](C(=O)N[C@@H](CCCNC(=N)N)C(=O)NCC(=O)N[C@@H](CSSCCOC(=O)O[C@]1(CC)C(=O)OCc2c1cc1n(c2=O)Cc2cc3ccccc3nc2-1)C(=O)NCC(=O)N[C@@H](CSSCCOC(=O)O[C@]1(CC)C(=O)OCC2=C1C=C1c3nc4ccccc4cc3NC1C2=O)C(=O)NC(=O)C[C@H](NC(=O)CN)C(=O)N1CCC[C@H]1C(=O)N[C@@H](CC(N)=O)C(=O)N[C@@H](Cc1c[nH]c2ccccc12)C(=O)NCC(=O)N[C@@H](CCCNC(=N)N)C(=O)N[C@@H](CO)C(=O)N[C@@H](Cc1c[nH]c2ccccc12)C(=O)N[C@@H](Cc1ccc(O)cc1)C(=O)N[C@@H](CC(N)=O)C(=O)N[C@@H](CCC(N)=O)C(=O)N[C@@H](CCCNC(=N)N)C(=O)N[C@@H](Cc1ccccc1)C(=O)N[C@@H](CCCCN)C(N)=O)[C@@H](C)O (stereo partly specified) | 51.2% | Active | 0.12 µM | 17.1 µM | 8.5% | 0.49% | Active | Active | Non-Toxic | Toxic | Non-Toxic | Non-Toxic | Non-Toxic | –
2 | CC[C@H](C)[C@H](NC(=O)[C@@H](N)CCCNC(=N)N)C(=O)N[C@@H](CCCCN)C(=O)N1CCC[C@H]1C(=O)N[C@@H](CCCNC(=N)N)C(=O)N[C@@H](CCCCN)C(=O)NCC(=O)N[C@@H](Cc1ccc(O)cc1)C(=O)N[C@H](C(=O)N[C@@H](CCCNC(=N)N)C(=O)NCC(=O)N[C@@H](CSSCCOC(=O)O[C@]1(CC)C(=O)OCc2c1cc1n(c2=O)Cc2cc3ccccc3nc2-1)C(=O)NCC(=O)N[C@@H](CC(N)=O)C(=O)N1CCC[C@H]1C(=O)N[C@@H](CC(N)=O)C(=O)N[C@@H](Cc1c[nH]c2ccccc12)C(=O)NCC(=O)N[C@@H](CCCNC(=N)N)C(=O)N[C@@H](CO)C(=O)N[C@@H](Cc1c[nH]c2ccccc12)C(=O)N[C@@H](Cc1ccc(O)cc1)C(=O)N[C@@H](CC(N)=O)C(=O)N[C@@H](CCC(N)=O)C(=O)N[C@@H](CCCNC(=N)N)C(=O)N[C@@H](Cc1ccccc1)C(=O)N[C@@H](CCCCN)C(N)=O)[C@@H](C)O (H-RIKPRKGYTRGC(S(CH2)2OCO2(CPT-20-yl))GNPNWGRSWYNQRFK-NH2) | 57.6% | Active | 1.47 µM | 23.9 µM | 7.25% | 0.26% | – | Active | Non-Toxic | Non-Toxic | Non-Toxic | Non-Toxic | Non-Toxic | < 10%
